Test results reported in patent publication US6541463B1, “Inhibitors of type 5 and type 3 17β-hydroxysteroid dehydrogenase and methods for their use” (Endorecherche, Inc., priority 1998, dated 2003).
Where two headings read alike, the source gives them in different places.

How the values were obtained:
[1] = biological target: T1, human type 3 17β-hydroxysteroid dehydrogenase (Homo sapiens, UniProt P37058); test: Enzymatic assay for type 3 17β-HSD; assay type: biochemical
T1 construct: expressed in transfected cells; host or cells: 293 cells, transient transfection; microsomal fraction (100 000×g pellet)
T1 sequence (P37058 1-310): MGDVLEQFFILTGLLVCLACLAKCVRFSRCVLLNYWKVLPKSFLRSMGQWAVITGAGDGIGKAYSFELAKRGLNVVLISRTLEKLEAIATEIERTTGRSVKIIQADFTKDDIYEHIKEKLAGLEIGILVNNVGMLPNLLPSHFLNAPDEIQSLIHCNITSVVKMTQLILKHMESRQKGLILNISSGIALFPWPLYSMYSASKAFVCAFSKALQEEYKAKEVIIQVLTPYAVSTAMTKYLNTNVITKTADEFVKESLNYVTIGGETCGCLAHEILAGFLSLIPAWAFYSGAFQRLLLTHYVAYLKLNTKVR
Description: Enzymatic assay for types 1, 2, and 3 17β-HSD and types 1 and 3 3α-HSD”. Lower numbers of IC50 are desirable. Blank means that a determination was not done. The % of inhibition at the concentration of 3.10^−6M determined in preliminary screening test is reported in square braquets.
Enzyme sources. 293 cells transiently transfected with expression vectors encoding types 1, 2 and 3 17β-HSD (Luu-The et al., J. Steroid Biochem. Molec. Biol., 55: 581-587, 1995), types 1 and 2 5α-reductase (Luu-The et al., J. Invest. Dermatol., 102: 221-226, 1994) and types 1 and 3 3α-HSD (Dufort et al. Biochem. Biophys. Res. Commun. 228: 474-479, 1996), using the calcium phosphate procedure (Kingston et al., In: Current Protocols in Molecular Biology. Edited by E. M. Ausbel, R. Brent, R. E. Kingston, D. D. Moore, J. G. Seidman, J. A. Smith, K. Struhl. John Wiley & Sons, New York, pp. 9.1.1-9.1.9, 1991; Luu-The et al., J. Invest. Dermatol., 102: 221-226, 1994). For assays using cell subfractions, cells were sonicated in 50 mM sodium phosphate buffer (pH 7.4), containing 20% glycerol and 1 mM EDTA and centrifuged at 10 000×g for 30 min before centrifugation for 100 000×g for 1 h to separate the mitochondrial and microsomal fractions, respectively. The cytosol fractions (100 000×g supernatant) was used to determine type 1 activity while the microsomal fraction (pellet at 100 000×g) was used for measurement of types 2 and 3 17β-HSD activities.
Incubation. The enzymatic reaction was carried out at 37° C. in 1 ml of 50 mM sodium phosphate buffer, pH 7.4, containing 20% glycerol, 1 mM EDTA, and 2 mM cofactors (NADPH or AND^+) for 1 h in the presence of 0.1 μM ^14C-labeled substrate: estrone and 4-dione for types 1 and […] 17β-HSD, respectively, testosterone for type 2 17β-HSD as well as types 1 and 2 5α-reductases, DHT for types 1 and 3 3α-HSD activities, and the indicated concentration of inhibitor.
Extraction of metabolites, migration on TLC and quantification were as described above for the assay of type 5 17β-HSD.

Structure (SMILES)	IC50 [1]	% of Inhibition of the Type 3 17β-HSD Activity ([1]; 3.10^−6 M inhibitor)	% of Inhibition of the Type 3 17β-HSD Activity ([1]; 3.10^−7 M inhibitor)	IC50 ([1]; Table 7, read-out: Inhibition of the Type 3 17β-HSD Activity IC50)	melting point
C[C@]12CC[C@@H](O)C[C@@H]1CC[C@@H]1[C@@H]2CC[C@]2(C)C(=O)CC[C@@H]12 [androsterone, reference compound]	0.2 µM	–	–	–	–
CCOCCOc1ccc2c(c1)CC[C@@H]1[C@@H]2CC[C@]2(C)C(=O)CC[C@@H]12 [EM-1071, 3-Ethyloxyethyloxy-1,3,5(10)-estratrien-17-one]	–	91%	73%	–	–
COCCOc1ccc2c(c1)CC[C@@H]1[C@@H]2CC[C@]2(C)C(=O)CC[C@@H]12 [EM-1073, 3-Methyloxyethyloxy-1,3,5(10)-estratrien-17-one]	–	87%	51%	–	–
C[C@]12CC[C@](O)(CCc3ccccc3)C[C@@H]1CC[C@@H]1[C@@H]2CC[C@]2(C)C(=O)CC[C@@H]12 [EM-1324-CS, 3α-hydroxy-3β-phenylethyl-5α-androstane-17-one]	–	–	–	0.031 ± 0.004 µM	–
C[C@]12CC[C@](O)(Cc3ccccc3)C[C@@H]1CC[C@@H]1[C@@H]2CC[C@]2(C)C(=O)CC[C@@H]12 [CS-213, 3β-benzyl-3α-Hydroxy-5α-androstane-17-one]	0.031 ± 0.004 µM	–	–	–	–
CCCCOc1ccc2c(c1)CC[C@@H]1[C@@H]2CC[C@]2(C)C(=O)CC[C@@H]12 [EM-1074, 3-Butyloxy-1,3,5(10)-estratrien-17-one]	–	92%	62%	–	–
COCOc1ccc2c(c1)CC[C@@H]1[C@@H]2CC[C@]2(C)C(=O)CC[C@@H]12 [EM-1070, 3-Methyloxymethyloxy-1,3,5(10)-estratrien-17-one]	–	90%	57%	–	–
CSCOc1ccc2c(c1)CC[C@@H]1[C@@H]2CC[C@]2(C)C(=O)CC[C@@H]12 [EM-1066, 3-Methylthiomethyloxy-1,3,5(10)-estratrien-17-one]	–	93%	63%	–	–
COCSc1ccc2c(c1)CC[C@@H]1[C@@H]2CC[C@]2(C)C(=O)CC[C@@H]12 [EM-1064, 3-Methoxymethylthio-Estra-1,3,5(10)-trien-17-one]	–	92%	62%	–	55 °C
CSCCSc1ccc2c(c1)CC[C@@H]1[C@@H]2CC[C@]2(C)C(=O)CC[C@@H]12 [EM-1065, 3-Methylthioethylthio-Estra-1,3,5(10)-trien-17-one]	–	94%	63%	–	74 °C
